Test results reported in ChEMBL document CHEMBL3739292, “Synthesis and Biological Evaluation of Polar Functionalities Containing Nitrodihydroimidazooxazoles as Anti-TB Agents” (ACS Med Chem Lett, 2015).
Converted amounts (≈) assume the structure as drawn.

How the values were obtained:
[1] = Cytotoxicity against human HepG2 cells after 24 hrs by MTT assay; assay type: cell-based
[2] = tested on: Mycobacterium tuberculosis; experiment: Antimicrobial activity against Mycobacterium tuberculosis H37Rv ATCC 27294 after 7 days by resazurin microtiter assay; assay type: functional; details: H37Rv ATCC 27294, 168 h
[3] = tested on: Mycobacterium tuberculosis; experiment: Antimicrobial activity against nonreplicating Mycobacterium tuberculosis 18b by resazurin microtiter assay; assay type: functional
[4] = Selectivity index, ratio of CC50 for human HepG2 cells to MIC for Mycobacterium tuberculosis H37Rv ATCC 27294; assay type: toxicity, cell-based; details: read-out: Selectivity Index
[5] = Aqueous solubility of compound at pH7 for 4 hrs by HPLC analysis; assay type: physicochemical; details: aqueous solution, pH 7
[6] = Metabolic stability in rat liver microsomes assessed as compound remaining after 30 mins by LC-MS/MS analysis; assay type: ADME; details: read-out: Stability
[7] = (§1) AUC (0 to t) in Balb/c mouse at 5 mg/kg, po by LC-MS/MS analysis; assay type: ADME, organism-based; details: Balb/c, in vivo
[8] = Cmax in Balb/c mouse at 5 mg/kg, po by LC-MS/MS analysis; assay type: ADME, organism-based; parameters: dose 5 mg/kg, route oral; details: in vivo
Mus musculus [9] = experiment: Toxicity in Balb/c mouse at 100 mg/kg, po; assay type: organism-based; details: in vivo
Mus musculus [10] = experiment: Volume of distribution in Balb/c mouse at 5 mg/kg, po by LC-MS/MS analysis; assay type: ADME, organism-based; details: in vivo
[11] = Clearance in Balb/c mouse at 5 mg/kg, po by LC-MS/MS analysis; assay type: ADME, organism-based; details: in vivo
[12] = Tmax in Balb/c mouse at 5 mg/kg, po by LC-MS/MS analysis; assay type: ADME, organism-based; details: in vivo
[13] = Solubility of compound in simulated intestinal fluid at pH 6.8 after 4 hrs by HPLC analysis; assay type: ADME
[14] = (§2) Half life in Balb/c mouse at 5 mg/kg, po by LC-MS/MS analysis; assay type: ADME, organism-based; details: Balb/c, in vivo
Mus musculus [15] = experiment: Toxicity in Balb/c mouse at 20 mg/kg, po; assay type: organism-based; details: in vivo
[16] = tested on: Mycobacterium tuberculosis; experiment: Antitubercular activity against Mycobacterium tuberculosis H37Rv infected in Balb/c mouse assessed as decrease in bacterial load at 25 mg/kg, po once daily for 5 days (reference value: 1.61 LogCFU ); assay type: functional
[17] = Solubility of compound in phosphate buffer solution at pH 7.4 after 4 hrs by HPLC analysis; assay type: physicochemical
Mus musculus [18] = experiment: Toxicity in Balb/c mouse at 25 mg/kg, po once daily for 5 days; assay type: organism-based; details: in vivo, 120 h
[19] = Solubility of compound in simulated gastric fluid at pH 1.2 after 4 hrs by HPLC analysis; assay type: ADME
Mus musculus [20] = experiment: as §1; assay type: ADME, organism-based; details: in vivo
Mus musculus [21] = experiment: as §2; assay type: ADME, organism-based; details: in vivo

| Structure (SMILES) | MIC90 [2] | MIC [3] | solubility at 4 h [5] | also measured |
| --- | --- | --- | --- | --- |
| C[C@]1(COc2ccc(N3CCC(Oc4ccc(OC(F)(F)F)cc4)CC3)cc2)Cn2cc([N+](=O)[O-])nc2O1 | 0.007 µg/mL (≈ 0.0131 µM) | 0.37 µg/mL (≈ 0.692 µM) | – | CC50 at 24 h [1]: 108 µg/mL (≈ 201 µM) |
| C[C@]1(COc2ccc(NC(=O)Nc3ccccc3F)cc2)Cn2cc([N+](=O)[O-])nc2O1 | 1.67 µg/mL (≈ 3.91 µM) | – | – | – |
| C[C@]1(COc2ccc(S(=O)(=O)N3CCC(c4ccccc4)CC3)cc2)Cn2cc([N+](=O)[O-])nc2O1 | 0.67 µg/mL (≈ 1.34 µM) | – | – | – |
| CCOc1ccc(NC(=O)Nc2ccc(OC[C@@]3(C)Cn4cc([N+](=O)[O-])nc4O3)cc2)cc1 | 0.5 µg/mL (≈ 1.1 µM) | 1 µg/mL (≈ 2.21 µM) | 6.66 µg/mL (≈ 14.7 µM) | selectivity ratio [4]: > 80; CC50 at 24 h [1]: > 20 µg/mL |
| CC(C)(C)OC(=O)N1CCN(c2ccc(OC[C@@]3(C)Cn4cc([N+](=O)[O-])nc4O3)cc2)CC1 | 6.67 µg/mL (≈ 14.5 µM) | – | – | – |
| C[C@]1(COc2ccc(S(=O)(=O)N3CCCC3)cc2)Cn2cc([N+](=O)[O-])nc2O1 | 1 µg/mL (≈ 2.45 µM) | – | – | – |
| C[C@]1(COc2ccc(NC(=O)Nc3ccc(C(F)(F)F)cc3)cc2)Cn2cc([N+](=O)[O-])nc2O1 | 0.5 µg/mL (≈ 1.05 µM) | – | < 1 µg/mL | – |
| COc1ccc(S(=O)(=O)N2CCN(c3ccc(OC[C@@]4(C)Cn5cc([N+](=O)[O-])nc5O4)cc3)CC2)cc1 | 0.5 µg/mL (≈ 0.944 µM) | – | < 1 µg/mL | – |
| C[C@]1(COc2ccc(S(=O)(=O)N3CCN(c4cccc(Cl)c4)CC3)cc2)Cn2cc([N+](=O)[O-])nc2O1 | 0.83 µg/mL (≈ 1.55 µM) | – | – | – |
| CC(C)(C)c1ccc(NC(=O)Nc2ccc(OC[C@@]3(C)Cn4cc([N+](=O)[O-])nc4O3)cc2)cc1 | 0.09 µg/mL (≈ 0.193 µM) | – | < 1 µg/mL | – |
| CCc1ccc(NC(=S)Nc2ccc(OC[C@@]3(C)Cn4cc([N+](=O)[O-])nc4O3)cc2)cc1 | 1 µg/mL (≈ 2.2 µM) | – | – | – |
| C[C@]1(COc2ccc(NC(=O)Nc3ccc(Cl)cc3)cc2)Cn2cc([N+](=O)[O-])nc2O1 | 0.25 µg/mL (≈ 0.563 µM) | 4 µg/mL (≈ 9.01 µM) | 6.66 µg/mL (≈ 15 µM) | selectivity ratio [4]: > 80; CC50 at 24 h [1]: > 20 µg/mL |
| CCOC(=O)N1CCN(S(=O)(=O)c2ccc(OC[C@@]3(C)Cn4cc([N+](=O)[O-])nc4O3)cc2)CC1 | 4 µg/mL (≈ 8.07 µM) | – | – | – |
| C[C@]1(COc2ccc(NC(=S)Nc3ccc(OC(F)(F)F)cc3)cc2)Cn2cc([N+](=O)[O-])nc2O1 | 0.25 µg/mL (≈ 0.491 µM) | – | < 1 µg/mL | – |
| C[C@]1(COc2ccc(N3CCN(S(=O)(=O)c4ccccc4)CC3)cc2)Cn2cc([N+](=O)[O-])nc2O1 | 1 µg/mL (≈ 2 µM) | – | – | – |
| Cc1ccc(S(=O)(=O)N2CCN(c3ccc(OC[C@@]4(C)Cn5cc([N+](=O)[O-])nc5O4)cc3)CC2)cc1 | 0.5 µg/mL (≈ 0.974 µM) | – | < 1 µg/mL | – |

| Structure (SMILES) | MIC90 [2] | MIC [3] | solubility at 4 h [5] | also measured |
| --- | --- | --- | --- | --- |
| Cc1ccc(NC(=S)Nc2ccc(OC[C@@]3(C)Cn4cc([N+](=O)[O-])nc4O3)cc2)cc1 | 0.83 µg/mL (≈ 1.89 µM) | – | – | – |
| C[C@]1(COc2ccc(NC(=O)Nc3ccc(OC(F)(F)F)cc3)cc2)Cn2cc([N+](=O)[O-])nc2O1 | 0.67 µg/mL (≈ 1.36 µM) | – | – | – |
| C[C@]1(COc2ccc(S(=O)(=O)N3CCN(C(=O)c4ccccc4)CC3)cc2)Cn2cc([N+](=O)[O-])nc2O1 | 4 µg/mL (≈ 7.58 µM) | – | – | – |
| Cc1ccc(NC(=O)Nc2ccc(OC[C@@]3(C)Cn4cc([N+](=O)[O-])nc4O3)cc2)cc1 | 0.21 µg/mL (≈ 0.496 µM) | – | < 1 µg/mL | – |
| COc1ccc(NC(=O)Nc2ccc(OC[C@@]3(C)Cn4cc([N+](=O)[O-])nc4O3)cc2)cc1 | 2 µg/mL (≈ 4.55 µM) | – | – | – |
| CC(C)(C)OC(=O)Nc1ccc(OC[C@@]2(C)Cn3cc([N+](=O)[O-])nc3O2)cc1 | 1.34 µg/mL (≈ 3.43 µM) | – | – | – |
| COc1ccc(NC(=S)Nc2ccc(OC[C@@]3(C)Cn4cc([N+](=O)[O-])nc4O3)cc2)cc1 | 0.5 µg/mL (≈ 1.1 µM) | > 8 µg/mL | 8.66 µg/mL (≈ 19 µM) | selectivity ratio [4]: > 80; CC50 at 24 h [1]: > 20 µg/mL |
| CCc1ccc(NC(=O)Nc2ccc(OC[C@@]3(C)Cn4cc([N+](=O)[O-])nc4O3)cc2)cc1 | 0.5 µg/mL (≈ 1.14 µM) | – | < 1 µg/mL | – |
| C[C@]1(COc2ccc(S(=O)(=O)N3CCOCC3)cc2)Cn2cc([N+](=O)[O-])nc2O1 | 0.37 µg/mL (≈ 0.872 µM) | 1.34 µg/mL (≈ 3.16 µM) | 20 µg/mL (≈ 47.1 µM) | remaining at 0.5 h [6]: 99.3%; AUC(0-t) [7]: 879 ng·h/mL; Cmax [8]: 640 ng/mL; Activity (Mus musculus [9]): Non-toxic; selectivity ratio [4]: > 40; Vd (Mus musculus [10]): 12.97 L/kg; CL/F [11]: 75.2 mL/min/kg; Tmax [12]: 0.5 h; solubility at 4 h [13]: 20 µg/mL (≈ 47.1 µM); half-life [14]: 1.99 h; Activity (Mus musculus [15]): Non-toxic; CC50 at 24 h [1]: > 20 µg/mL; Activity [16]: 1.28 log10CFU; solubility at 4 h [17]: 20 µg/mL (≈ 47.1 µM); Activity (Mus musculus [18]): Non-toxic; solubility at 4 h [19]: 20 µg/mL (≈ 47.1 µM) |
| C[C@]1(COc2ccc(N3CCN(S(=O)(=O)c4ccc(C(F)(F)F)cc4)CC3)cc2)Cn2cc([N+](=O)[O-])nc2O1 | 0.25 µg/mL (≈ 0.44 µM) | – | < 1 µg/mL | – |
| Cc1ccccc1NC(=O)Nc1ccc(OC[C@@]2(C)Cn3cc([N+](=O)[O-])nc3O2)cc1 | 1 µg/mL (≈ 2.36 µM) | – | – | – |
| C[C@]1(COc2ccc(N3CCN(S(=O)(=O)c4ccc(F)cc4)CC3)cc2)Cn2cc([N+](=O)[O-])nc2O1 | 0.06 µg/mL (≈ 0.116 µM) | > 8 µg/mL | 8.33 µg/mL (≈ 16.1 µM) | selectivity ratio [4]: > 333; CC50 at 24 h [1]: > 20 µg/mL |
| C[C@]1(COc2ccc(-n3cc(COc4ccc(OC(F)(F)F)cc4)nn3)cc2)Cn2cc([N+](=O)[O-])nc2O1 | 0.12 µg/mL (≈ 0.225 µM) | 4 µg/mL (≈ 7.51 µM) | < 1 µg/mL | remaining at 0.5 h [6]: 90.8%; AUCt (Mus musculus [20]): 7428 ng·h/mL; Cmax [8]: 540 ng/mL; Activity (Mus musculus [9]): Non-toxic; selectivity ratio [4]: > 166; Vd (Mus musculus [10]): 0.377 L/kg; Tmax [12]: 2 h; solubility at 4 h [13]: < 1 µg/mL; t1/2 (Mus musculus [21]): 4.01 h; Activity (Mus musculus [15]): Non-toxic; CC50 at 24 h [1]: > 20 µg/mL; solubility at 4 h [17]: < 1 µg/mL; Activity (Mus musculus [18]): Non-toxic; solubility at 4 h [19]: < 1 µg/mL |
| C[C@]1(COc2ccc(S(=O)(=O)N3CCCCC3)cc2)Cn2cc([N+](=O)[O-])nc2O1 | 0.5 µg/mL (≈ 1.18 µM) | 10.7 µg/mL (≈ 25.3 µM) | 13.3 µg/mL (≈ 31.6 µM) | selectivity ratio [4]: > 40; CC50 at 24 h [1]: > 20 µg/mL |
| COc1c(N2CCNC(C)C2)c(F)cc2c(=O)c(C(=O)O)cn(C3CC3)c12 (configuration not stated) [GATIFLOXACIN] | – | 1 µg/mL (≈ 2.66 µM) | – | – |
| CO[C@H]1/C=C/O[C@@]2(C)Oc3c(C)c(O)c4c(O)c(c(/C=N/N5CCN(C)CC5)c(O)c4c3C2=O)NC(=O)/C(C)=C\C=C\[C@H](C)[C@H](O)[C@@H](C)[C@@H](O)[C@@H](C)[C@H](OC(C)=O)[C@@H]1C [RIFAMPIN] | 0.06 µg/mL (≈ 0.0729 µM) | 2 µg/mL (≈ 2.43 µM) | – | – |
